Tested on: Jurkat-PD-1-NFAT-LUC cells
Assay: IL-2 secretion by Jurkat-PD-1-NFAT-LUC cells co-cultured with Raji-PD-L1 cells (ELISA)
Assay type: cell-based, human
Conditions: 6 hours, FIG. 1D
Procedure: (1) Jurkat cells were used to construct a stable cell line expressing PD-1. The pCAGin-PD-1 plasmid was electroporated into Jurkat cells, which were then screened with 900 μg/mL G418 antibiotic and flow-sorted for single clones. Jurkat-PD-1 cells were then electroporated into a DNA fragment that controls the luciferase gene through the NFAT-binding site (referred to as NFAT-LUC). A single clone was then flow-sorted and named clone 5. Using this cell, the expression level of IL-2 can be measured by the activity of luciferase. Raji cells stably expressing PD-L1 were constructed, and the pCDNA-PD-L1 plasmid was electroporated into the Raji cells, followed by screening with 2 μg/mL puromycin, and then flow-sorted single clones and named clone 1.
(3) A 96-well plate was coated with 10 μg/mL CD3 antibody/10 μg/mL CD28 antibody overnight at 4° C. and excess antibody was washed off with PBS. Raji cells or Raji-PD-L1 cells were co-cultured with Jurkat-PD-1-NFAT-LUC cells at a ratio of 1:1, or to a mixture of Raji-PD-L1 cells and Jurkat-PD-1-NFAT-LUC cells at a ratio of 1:1 was added 1 μM MTC or 10 μg/mL PD1 antibody for co-culture; after 6 hours of co-culture, the secretion of IL-2 in the supernatant was measured by ELISA.

CN(C)c1ccc2nc3ccc(N(C)C)cc3[s+]c2c1 [MTC, 3,7-bis(dimethylamino)-phenothiazine-5-ium chloride]
function of Jurkat cells inhibited by PD-1, compared with the PD-1 antibody group (1 μM MTC vs 10 μg/mL PD1 antibody): significantly improved | secretion of IL-2 in the supernatant (Raji-PD-L1 : Jurkat-PD-1-NFAT-LUC 1:1, CD3/CD28 antibody coated plate, 1 μM MTC or 10 μg/mL PD1 antibody): sharply enhanced

Reference: US20220323454A1, “PHENOTHIAZINES AND THEIR DERIVATIVES FOR USE AS A MEDICAMENT” (Guangzhou Virotech Pharmaceutical Co., Ltd., priority 2019, published 2022)
